Assay [1] deals with T1, Human JAK3 (Homo sapiens (Human), UniProt P52333). The assay is described as follows: In vitro kinase inhibition test, JAK3 (33P-ATP filter scintillation). The class given is biochemical.
Assay [2] deals with DBA/1J mice. Kind of assay: Collagen-induced arthritis (CIA) model, hind paw edema volume. The conditions noted are these: 50 mg/kg oral once a day. Format: in vivo, mouse. On the procedure:
2. Collagen-induced Arthritis (CIA) Model
DBA/1J mice (6 weeks old, male) were purchased from Japan SLC, Inc., and maintained under controlled lighting in a 12-hour light/dark cycle (07:00-19:00). The temperature was maintained at about 22° C., and the mice were allowed to freely have feed and drinking water.
Type II collagen (dissolved in 0.05 M acetic acid (2 mg/mL)) was kept at 4° C. prior to induction. On the first day of induction, prior to a first immunization, a complete Freund's adjuvant and type II collagen in an equal ratio were homogenized in a cooled tube using a homogenizer to obtain an emulsion of the type II collagen and the Freund's adjuvant. 0.1 mL of the emulsion was injected into mouse tails for the first immunization. […]
Therapeutic efficacy of the compounds according to embodiments was determined using a collagen-induced mouse animal model. […]
The degree of arthritic disease was determined based on the degree of paw edema obtained by measuring a volume of mouse hind paws of the experimental animals. A volume change in the hind paws was measured using a volume measuring flowmeter (Plethysmometer, Havard apparatus, USA, Cat no. 760220), wherein the volume was measured by putting the mouse hind legs into a measurement cell, from knee to paw. The volumes of both paws were measured, and a larger volume value between the two was used as a representative value. […]

In assay [3] the target is T1, Human JAK3. Kind of assay: In vitro kinase inhibition test, JAK3 (33P-ATP filter scintillation). The class given is biochemical. Particulars: compound at 1 uM; read-out: JAK3 kinase-phosphorylation inhibitory level (% inhibition).
Assay [4] concerns the target T2, Human JAK1 (Homo sapiens (Human), UniProt P23458). The assay is described as follows: In vitro kinase inhibition test, JAK1 (33P-ATP filter scintillation). The class given is biochemical. Particulars: compound at 1 uM; read-out: JAK1 kinase-phosphorylation inhibitory level (% inhibition).
In assay [5] the target is T3, Human TYK2 (Homo sapiens (Human), UniProt P29597). The assay is described as follows: In vitro kinase inhibition test, TYK2 (33P-ATP filter scintillation). The conditions noted are these: compound at 1 uM; read-out: TYK2 kinase-phosphorylation inhibitory level (% inhibition). Format: biochemical.
The target in assay [6] is T4, Human JAK2 (Homo sapiens (Human), UniProt O60674). The assay is described as follows: In vitro kinase inhibition test, JAK2 (33P-ATP filter scintillation). The class given is biochemical.
For assay [7], the target named is T4, Human JAK2. The description is as above. Format: biochemical. The conditions noted are these: compound at 1 uM; read-out: JAK2 kinase-phosphorylation inhibitory level (% inhibition).
The target in assay [8] is T3, Human TYK2. The assay is described as follows: In vitro kinase inhibition test, TYK2 (33P-ATP filter scintillation). The class given is biochemical.
The target of assay [9] is T2, Human JAK1. Kind of assay: In vitro kinase inhibition test, JAK1 (33P-ATP filter scintillation). The class given is biochemical.

pIC50: −log10 of the molar value.

T2 sequence (P23458 whole entry): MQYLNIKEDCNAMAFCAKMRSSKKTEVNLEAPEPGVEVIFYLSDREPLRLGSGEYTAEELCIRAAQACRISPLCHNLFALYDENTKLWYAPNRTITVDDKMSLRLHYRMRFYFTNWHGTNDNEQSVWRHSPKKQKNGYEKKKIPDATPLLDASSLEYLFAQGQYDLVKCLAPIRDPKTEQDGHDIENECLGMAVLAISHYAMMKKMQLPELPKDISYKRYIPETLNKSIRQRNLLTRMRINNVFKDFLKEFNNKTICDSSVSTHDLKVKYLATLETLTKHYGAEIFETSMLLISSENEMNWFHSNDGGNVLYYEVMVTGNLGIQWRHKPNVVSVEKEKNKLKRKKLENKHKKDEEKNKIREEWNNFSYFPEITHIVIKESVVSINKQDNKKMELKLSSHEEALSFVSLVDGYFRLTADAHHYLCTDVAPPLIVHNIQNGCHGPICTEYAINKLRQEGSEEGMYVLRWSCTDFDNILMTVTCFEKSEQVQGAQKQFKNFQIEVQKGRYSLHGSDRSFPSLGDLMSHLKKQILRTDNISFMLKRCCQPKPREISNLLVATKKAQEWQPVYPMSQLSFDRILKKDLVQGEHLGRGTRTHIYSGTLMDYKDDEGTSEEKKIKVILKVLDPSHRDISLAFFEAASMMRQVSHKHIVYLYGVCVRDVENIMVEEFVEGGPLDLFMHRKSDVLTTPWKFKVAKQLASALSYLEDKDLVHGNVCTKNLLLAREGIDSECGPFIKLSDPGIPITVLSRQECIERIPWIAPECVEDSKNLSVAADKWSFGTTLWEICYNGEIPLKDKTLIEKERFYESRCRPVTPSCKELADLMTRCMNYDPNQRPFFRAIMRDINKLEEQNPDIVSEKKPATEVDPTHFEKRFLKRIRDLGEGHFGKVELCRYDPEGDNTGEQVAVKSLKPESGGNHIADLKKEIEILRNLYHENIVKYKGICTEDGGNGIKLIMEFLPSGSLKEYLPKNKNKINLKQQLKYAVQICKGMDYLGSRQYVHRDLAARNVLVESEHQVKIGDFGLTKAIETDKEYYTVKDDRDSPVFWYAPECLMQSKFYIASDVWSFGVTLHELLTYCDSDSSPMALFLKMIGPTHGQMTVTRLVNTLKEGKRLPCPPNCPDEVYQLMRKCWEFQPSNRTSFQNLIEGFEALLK
T1 sequence (P52333 whole entry): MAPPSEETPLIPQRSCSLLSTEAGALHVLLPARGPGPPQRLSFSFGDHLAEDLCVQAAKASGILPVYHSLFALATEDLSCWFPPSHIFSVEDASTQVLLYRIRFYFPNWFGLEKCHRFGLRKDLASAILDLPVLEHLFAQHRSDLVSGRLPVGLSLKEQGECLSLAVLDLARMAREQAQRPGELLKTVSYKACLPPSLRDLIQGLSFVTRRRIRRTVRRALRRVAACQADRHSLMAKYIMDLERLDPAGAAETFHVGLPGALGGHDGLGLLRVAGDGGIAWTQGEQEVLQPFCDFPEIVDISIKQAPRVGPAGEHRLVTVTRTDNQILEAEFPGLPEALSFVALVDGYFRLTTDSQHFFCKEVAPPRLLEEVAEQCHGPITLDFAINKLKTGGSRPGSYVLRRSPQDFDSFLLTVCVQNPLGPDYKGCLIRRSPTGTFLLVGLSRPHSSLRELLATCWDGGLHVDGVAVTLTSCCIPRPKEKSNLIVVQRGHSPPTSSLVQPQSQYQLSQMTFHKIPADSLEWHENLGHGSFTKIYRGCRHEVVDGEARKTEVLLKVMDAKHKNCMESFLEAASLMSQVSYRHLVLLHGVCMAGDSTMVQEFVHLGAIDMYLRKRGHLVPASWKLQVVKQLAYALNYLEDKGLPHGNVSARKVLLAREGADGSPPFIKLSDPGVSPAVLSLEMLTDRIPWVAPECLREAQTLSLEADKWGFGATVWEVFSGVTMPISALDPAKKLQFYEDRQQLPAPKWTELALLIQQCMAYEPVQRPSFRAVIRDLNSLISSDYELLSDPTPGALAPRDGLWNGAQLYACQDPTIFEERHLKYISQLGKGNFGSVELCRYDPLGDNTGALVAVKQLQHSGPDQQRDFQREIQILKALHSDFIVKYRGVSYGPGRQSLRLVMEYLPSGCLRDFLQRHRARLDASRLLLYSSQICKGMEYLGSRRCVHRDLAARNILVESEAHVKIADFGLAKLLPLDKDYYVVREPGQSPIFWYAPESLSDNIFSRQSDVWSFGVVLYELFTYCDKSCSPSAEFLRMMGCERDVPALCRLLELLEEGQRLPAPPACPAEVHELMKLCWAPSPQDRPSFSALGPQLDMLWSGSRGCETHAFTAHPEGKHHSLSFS
T3 sequence (P29597 whole entry): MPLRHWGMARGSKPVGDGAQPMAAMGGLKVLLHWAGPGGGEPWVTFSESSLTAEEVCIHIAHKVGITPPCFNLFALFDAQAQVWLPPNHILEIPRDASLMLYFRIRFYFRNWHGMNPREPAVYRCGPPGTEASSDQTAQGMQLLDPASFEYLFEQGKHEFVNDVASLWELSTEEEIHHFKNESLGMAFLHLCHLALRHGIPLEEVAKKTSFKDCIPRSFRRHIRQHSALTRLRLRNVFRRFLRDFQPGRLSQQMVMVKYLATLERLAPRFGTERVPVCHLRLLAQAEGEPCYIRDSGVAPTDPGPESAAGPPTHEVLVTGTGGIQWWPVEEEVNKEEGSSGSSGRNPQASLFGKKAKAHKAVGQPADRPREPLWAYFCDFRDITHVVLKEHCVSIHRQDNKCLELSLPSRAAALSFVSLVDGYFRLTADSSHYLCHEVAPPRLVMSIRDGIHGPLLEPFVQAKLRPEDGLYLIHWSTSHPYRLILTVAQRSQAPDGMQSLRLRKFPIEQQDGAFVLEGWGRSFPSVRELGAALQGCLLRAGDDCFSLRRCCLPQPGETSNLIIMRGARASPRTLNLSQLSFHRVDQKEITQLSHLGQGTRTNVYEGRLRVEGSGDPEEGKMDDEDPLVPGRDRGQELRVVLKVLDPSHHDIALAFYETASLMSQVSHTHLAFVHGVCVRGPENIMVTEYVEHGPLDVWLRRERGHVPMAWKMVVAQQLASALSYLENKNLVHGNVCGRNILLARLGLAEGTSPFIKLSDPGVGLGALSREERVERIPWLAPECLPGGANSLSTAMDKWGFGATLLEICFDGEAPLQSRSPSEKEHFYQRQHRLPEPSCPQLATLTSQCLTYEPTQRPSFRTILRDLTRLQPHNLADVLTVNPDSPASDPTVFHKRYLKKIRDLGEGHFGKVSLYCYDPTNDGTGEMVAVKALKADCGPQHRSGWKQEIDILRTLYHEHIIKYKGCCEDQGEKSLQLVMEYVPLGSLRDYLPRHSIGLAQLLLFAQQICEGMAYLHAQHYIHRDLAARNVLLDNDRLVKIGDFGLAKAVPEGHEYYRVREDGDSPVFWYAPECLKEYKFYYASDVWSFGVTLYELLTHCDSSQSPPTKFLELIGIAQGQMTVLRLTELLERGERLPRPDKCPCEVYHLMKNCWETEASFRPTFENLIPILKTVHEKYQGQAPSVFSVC
T4 sequence (O60674 whole entry): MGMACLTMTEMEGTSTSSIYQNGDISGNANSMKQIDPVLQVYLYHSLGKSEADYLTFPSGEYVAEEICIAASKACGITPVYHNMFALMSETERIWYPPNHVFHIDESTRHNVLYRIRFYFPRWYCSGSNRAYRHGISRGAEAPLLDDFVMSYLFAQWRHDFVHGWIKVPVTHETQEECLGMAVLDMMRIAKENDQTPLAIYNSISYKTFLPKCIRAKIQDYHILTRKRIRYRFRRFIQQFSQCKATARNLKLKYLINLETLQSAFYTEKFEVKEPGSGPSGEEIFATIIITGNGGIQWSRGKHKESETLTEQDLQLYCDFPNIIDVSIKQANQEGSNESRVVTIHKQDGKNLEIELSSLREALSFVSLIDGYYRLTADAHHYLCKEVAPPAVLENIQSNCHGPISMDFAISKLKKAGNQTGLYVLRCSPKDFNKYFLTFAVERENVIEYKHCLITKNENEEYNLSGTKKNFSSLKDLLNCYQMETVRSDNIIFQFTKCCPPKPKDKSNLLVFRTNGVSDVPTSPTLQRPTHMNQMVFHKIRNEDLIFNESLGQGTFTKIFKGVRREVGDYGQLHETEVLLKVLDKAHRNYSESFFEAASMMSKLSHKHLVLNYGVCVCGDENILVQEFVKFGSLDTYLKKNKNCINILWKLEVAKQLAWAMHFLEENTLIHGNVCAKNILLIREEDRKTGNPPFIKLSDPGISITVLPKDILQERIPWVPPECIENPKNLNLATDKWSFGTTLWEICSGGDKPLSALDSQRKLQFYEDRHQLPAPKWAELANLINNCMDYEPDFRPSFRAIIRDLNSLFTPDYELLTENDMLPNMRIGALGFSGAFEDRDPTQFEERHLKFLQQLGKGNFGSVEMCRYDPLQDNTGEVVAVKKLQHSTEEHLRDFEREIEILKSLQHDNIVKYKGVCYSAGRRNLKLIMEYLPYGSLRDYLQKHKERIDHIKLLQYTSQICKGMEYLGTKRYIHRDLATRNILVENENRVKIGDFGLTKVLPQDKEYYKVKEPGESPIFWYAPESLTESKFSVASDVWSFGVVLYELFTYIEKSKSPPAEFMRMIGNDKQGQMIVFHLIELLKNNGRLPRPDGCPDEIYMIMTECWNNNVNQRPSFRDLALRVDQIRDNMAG

In the case of `CN(c1ncnc2[nH]ccc12)[C@H]1CN(C(=O)CC#N)CC12CC2` [Example 5, (R)-3-(7-(methyl(7H-pyrrolo[2,3-d]pyrimidin-4-yl)amino)-5-azaspiro[2.4]heptan-5-yl)-3-oxopropanenitrile], the pIC50 in assay [1] is 5.96; in assay [6] it was 6.38; in assay [8], 6.60; in assay [9], 8.07. Further, the “inhibition of hind paw edema as compared to the control group” value in assay [2] (49th day after the first immunization (end of measurement)) is reported as “about 64%”; in [2] (from the 31st day after the first immunization onwards) it was at least 60%. The inhibition at 1 µM in assay [3] was 50%; in assay [4], 95%; in assay [5], 82%; in assay [7] it was 79%. Besides, the “JAK1 inhibitory activity relative to the racemic mixture (Example 55)” value in assay [9] (from IC50 values 8.5 nM vs 29.3 nM) is recorded as “about 3.5 fold”.
